Measured values published in patent US4698352A, “4-oxo-1,4-dihydronicotinic acid derivatives, salts thereof, and antibacterial agents containing the same” (Toyama Chemical Co., Ltd., priority 1982, dated 1987).
≈ marks a conversion by molar mass, not a printed value. Where two headings read alike, the source gives them in different places.

Tests used:
Experiment in all cases: Antibacterial activity (MIC), agar dilution
Format in all cases: cell-based
Pro. vulgaris GN3027 = conditions: Proteus vulgaris, GN3027, 20 h, Pro. vulgaris GN3027; 10^6 cells per ml; 37° C., 20 hours; read-out: MIC
Description: (§1) The amount of bacteria inoculated was 10^4 cells per plate (10^6 cells per ml).

Kl. pneumoniae Y-50 = conditions: Klebsiella pneumoniae, Y50, 20 h, 10^6 cells per ml, 37° C., read-out: MIC
Description: as §1

E. coli NIHJ JC-2 = conditions: Escherichia coli, NIHJJC2, 20 h
Description: as §1

Aci. antitratus A-6 = conditions: 20 h, Aci. antitratus A-6; 10^6 cells per ml; 37° C., 20 hours; read-out: MIC
Description: as §1

Kl. pneumoniae Y-41 = conditions: Klebsiella pneumoniae, Y41, 10^6 cells per ml, 37° C., 20 hours, read-out: MIC
Description: as §1

St. aureus FDA209P = conditions: Staphylococcus aureus, FDA209P, 20 h
Description: as §1

Pro. mirabilis T-111 = conditions: Proteus mirabilis, 37° C.
Description: as §1

Pro. morganii T-216 = conditions: Morganella morganii, 37° C.
Description: as §1

Ps. aeruginosa IFO3445 = conditions: Pseudomonas aeruginosa; Ps. aeruginosa IFO3445; 10^6 cells per ml; 37° C., 20 hours; read-out: MIC
Description: as §1

Ps. aeruginosa S-68 = conditions: Pseudomonas aeruginosa, S68; Ps. aeruginosa S-68; 10^6 cells per ml; 37° C., 20 hours; read-out: MIC
Description: as §1

Ent. cloacae IID977 = conditions: Enterobacter cloacae, IID977, 20 h
Description: as §1

E. coli TK-111 = conditions: Escherichia coli, TK111, 20 h, E. coli TK-111; 10^6 cells per ml; 37° C., 20 hours; read-out: MIC
Description: as §1

Ps. aeruginosa GN918** = conditions: Pseudomonas aeruginosa, Ps. aeruginosa GN918, cephalospolinase-producing, 10^6 cells per ml
Description: as §1
(§2) ** Cephalospolinase-producing bacteria

E. coli GN5482** = conditions: Escherichia coli, 20 h; E. coli GN5482, cephalospolinase-producing; 10^6 cells per ml; read-out: MIC
Description: as §1, §2

Pro. vulgaris GN76** = conditions: Proteus vulgaris
Description: as §1, §2

Kl. pneumoniae Y-4* = conditions: Klebsiella pneumoniae, 20 h, Kl. pneumoniae Y-4, penicillinase-producing; 10^6 cells per ml; read-out: MIC
Description: as §1
(§3) * Penicillinase-producing bacteria

Ps. aeruginosa GN3379* = conditions: Pseudomonas aeruginosa, 20 h; Ps. aeruginosa GN3379, penicillinase-producing; 10^6 cells per ml; read-out: MIC
Description: as §1, §3

E. coli TK-3* = conditions: Escherichia coli, 20 h
Description: as §1, §3

St. aureus F-137* = conditions: Staphylococcus aureus, 20 h
Description: as §1, §3

[1] = E. coli NIHJ JC-2, 10^6 cells per ml, 37° C., 20 hours, read-out: MIC
[2] = St. aureus FDA209P, 10^6 cells per ml, 37° C., 20 hours, read-out: MIC
[3] = T216, 10^6 cells per ml, 20 hours, read-out: MIC
[4] = Ent. cloacae IID977, 10^6 cells per ml, 37° C., 20 hours, read-out: MIC
[5] = E. coli TK-3, penicillinase-producing, 10^6 cells per ml, read-out: MIC
[6] = St. aureus F-137, penicillinase-producing, 10^6 cells per ml, read-out: MIC
[7] = 20 h, Pro. vulgaris GN76, cephalospolinase-producing, 10^6 cells per ml, read-out: MIC
[8] = T111, 10^6 cells per ml, 20 hours, read-out: MIC

Compound	MIC (Pro. vulgaris GN3027) [µg/mL]	MIC (Kl. pneumoniae Y-50) [µg/mL]	MIC (E. coli NIHJ JC-2; [1]) [µg/mL]	MIC (Aci. antitratus A-6) [µg/mL]	MIC (Kl. pneumoniae Y-41) [µg/mL]	MIC (St. aureus FDA209P; [2]) [µg/mL]	MIC (Pro. mirabilis T-111; T111, 20 h, 10^6 cells per ml) [µg/mL]	MIC (Pro. morganii T-216; [3]) [µg/mL]	MIC (Ps. aeruginosa IFO3445) [µg/mL]	MIC (Ps. aeruginosa S-68) [µg/mL]	MIC (Ent. cloacae IID977; [4]) [µg/mL]	MIC (E. coli TK-111) [µg/mL]	MIC (Ps. aeruginosa GN918**; 20 h, read-out: MIC) [µg/mL]	MIC (E. coli GN5482**) [µg/mL]	MIC (Kl. pneumoniae Y-4*) [µg/mL]	MIC (Ps. aeruginosa GN3379*) [µg/mL]	MIC (E. coli TK-3*; [5]) [µg/mL]	MIC (St. aureus F-137*; [6]) [µg/mL]	MIC (Pro. vulgaris GN76**; [7]) [µg/mL]	MIC (Pro. mirabilis T-111; [8]) [µg/mL]	further results
CN1CCOc2cc(-c3cc(=O)c(C(=O)O)cn3-c3ccc(O)cc3)ccc21	0.39 (≈ 1.03 µM)	0.78 (≈ 2.06 µM)	0.39 (≈ 1.03 µM)	0.78 (≈ 2.06 µM)	3.13 (≈ 8.27 µM)	0.39 (≈ 1.03 µM)	3.13 (≈ 8.27 µM)	1.56 (≈ 4.12 µM)	12.5 (≈ 33 µM)	6.25 (≈ 16.5 µM)	1.56 (≈ 4.12 µM)	0.2 (≈ 0.529 µM)	6.25 (≈ 16.5 µM)	≤ 0.05	3.13 (≈ 8.27 µM)	12.5 (≈ 33 µM)	0.78 (≈ 2.06 µM)	0.39 (≈ 1.03 µM)	–	–	MIC (Pro. vulgaris GN76**; GN76, 20 h): 3.13 µg/mL (≈ 8.27 µM)
CN1CCOc2cc(-c3cc(=O)c(C(=O)O)cn3-c3ccc(O)cc3F)ccc21	0.39 (≈ 0.984 µM)	0.39 (≈ 0.984 µM)	0.39 (≈ 0.984 µM)	0.39 (≈ 0.984 µM)	3.13 (≈ 7.9 µM)	0.39 (≈ 0.984 µM)	3.13 (≈ 7.9 µM)	1.56 (≈ 3.94 µM)	6.25 (≈ 15.8 µM)	6.25 (≈ 15.8 µM)	0.78 (≈ 1.97 µM)	0.1 (≈ 0.252 µM)	–	≤ 0.05	3.13 (≈ 7.9 µM)	12.5 (≈ 31.5 µM)	0.78 (≈ 1.97 µM)	0.2 (≈ 0.505 µM)	–	–	MIC (Ps. aeruginosa GN918**; GN918, 20 h): 3.13 µg/mL (≈ 7.9 µM); MIC (Pro. vulgaris GN76**; GN76, 20 h): 3.13 µg/mL (≈ 7.9 µM)
Cc1cc(O)ccc1-n1cc(C(=O)O)c(=O)cc1-c1ccc2c(c1)NCCN2C	0.78 (≈ 1.99 µM)	0.39 (≈ 0.996 µM)	0.39 (≈ 0.996 µM)	1.56 (≈ 3.99 µM)	3.13 (≈ 8 µM)	0.78 (≈ 1.99 µM)	3.13 (≈ 8 µM)	–	25 (≈ 63.9 µM)	12.5 (≈ 31.9 µM)	1.56 (≈ 3.99 µM)	0.2 (≈ 0.511 µM)	–	0.1 (≈ 0.255 µM)	6.25 (≈ 16 µM)	25 (≈ 63.9 µM)	0.78 (≈ 1.99 µM)	0.78 (≈ 1.99 µM)	1.56 (≈ 3.99 µM)	–	MIC (Pro. morganii T-216; T216, 20 h, 10^6 cells per ml): 3.13 µg/mL (≈ 8 µM); MIC (Ps. aeruginosa GN918**; GN918, 20 h): 3.13 µg/mL (≈ 8 µM)
Cc1cc(O)ccc1-n1cc(C(=O)O)c(=O)cc1C1CC2C=CC1C2 (stereo not shown)	0.78 (≈ 2.31 µM)	3.13 (≈ 9.28 µM)	–	6.25 (≈ 18.5 µM)	25 (≈ 74.1 µM)	–	–	12.5 (≈ 37.1 µM)	> 100	> 100	12.5 (≈ 37.1 µM)	1.56 (≈ 4.62 µM)	50 (≈ 148 µM)	1.56 (≈ 4.62 µM)	25 (≈ 74.1 µM)	> 100	12.5 (≈ 37.1 µM)	–	6.25 (≈ 18.5 µM)	25 (≈ 74.1 µM)	MIC (E. coli NIHJ JC-2): 3.13 µg/mL (≈ 9.28 µM); MIC (St. aureus FDA209P): 3.13 µg/mL (≈ 9.28 µM); MIC (St. aureus F-137*): 3.13 µg/mL (≈ 9.28 µM)
O=C(O)c1cn(-c2ccc(F)cc2)c(-c2ccc(N=Cc3ccc([N+](=O)[O-])o3)cc2)cc1=O	0.39 (≈ 0.872 µM)	1.56 (≈ 3.49 µM)	–	3.13 (≈ 7 µM)	6.25 (≈ 14 µM)	–	–	3.13 (≈ 7 µM)	25 (≈ 55.9 µM)	25 (≈ 55.9 µM)	–	0.78 (≈ 1.74 µM)	25 (≈ 55.9 µM)	0.39 (≈ 0.872 µM)	25 (≈ 55.9 µM)	50 (≈ 112 µM)	3.13 (≈ 7 µM)	–	–	12.5 (≈ 27.9 µM)	MIC (E. coli NIHJ JC-2): 1.56 µg/mL (≈ 3.49 µM); MIC (St. aureus FDA209P): 6.25 µg/mL (≈ 14 µM); MIC (Ent. cloacae IID977): 6.25 µg/mL (≈ 14 µM); MIC (Pro. vulgaris GN76**; GN76, 20 h): 1.56 µg/mL (≈ 3.49 µM); MIC (St. aureus F-137*): 6.25 µg/mL (≈ 14 µM)
O=C(O)c1cn(-c2ccc(F)cc2)c(C=Cc2ccncc2)cc1=O	0.2 (≈ 0.595 µM)	0.78 (≈ 2.32 µM)	12.5 (≈ 37.2 µM)	12.5 (≈ 37.2 µM)	6.25 (≈ 18.6 µM)	12.5 (≈ 37.2 µM)	–	–	50 (≈ 149 µM)	12.5 (≈ 37.2 µM)	3.13 (≈ 9.31 µM)	0.39 (≈ 1.16 µM)	25 (≈ 74.3 µM)	0.2 (≈ 0.595 µM)	6.25 (≈ 18.6 µM)	25 (≈ 74.3 µM)	1.56 (≈ 4.64 µM)	12.5 (≈ 37.2 µM)	0.78 (≈ 2.32 µM)	12.5 (≈ 37.2 µM)	MIC (Pro. morganii T-216; T216, 20 h, 10^6 cells per ml): 6.25 µg/mL (≈ 18.6 µM)
Nc1ccc(-c2cc(=O)c(C(=O)O)cn2-c2ccc(O)cc2)cc1	0.39 (≈ 1.21 µM)	3.13 (≈ 9.71 µM)	–	25 (≈ 77.6 µM)	12.5 (≈ 38.8 µM)	–	–	–	25 (≈ 77.6 µM)	25 (≈ 77.6 µM)	–	0.78 (≈ 2.42 µM)	25 (≈ 77.6 µM)	0.1 (≈ 0.31 µM)	12.5 (≈ 38.8 µM)	25 (≈ 77.6 µM)	–	6.25 (≈ 19.4 µM)	1.56 (≈ 4.84 µM)	25 (≈ 77.6 µM)	MIC (E. coli NIHJ JC-2): 3.13 µg/mL (≈ 9.71 µM); MIC (St. aureus FDA209P): 3.13 µg/mL (≈ 9.71 µM); MIC (Pro. morganii T-216; T216, 20 h, 10^6 cells per ml): 3.13 µg/mL (≈ 9.71 µM); MIC (Ent. cloacae IID977): 12.5 µg/mL (≈ 38.8 µM); MIC (E. coli TK-3*): 3.13 µg/mL (≈ 9.71 µM)
